Entries after “also recorded” stand apart in the source; their conditions may differ.
Legend:
CT26 tumour cells = test: Anti-tumour vaccination with dying treated CT26 tumour cells, challenge with live tumour cells; type: in vivo, BALB/c mice; settings: for immunogenic apoptosis / immunogenic cell death (protection against tumour growth): dying CT26 cells treated with the agent injected into one flank, live tumour cells into the opposite flank 8 days later
CT26 cells = test: Phagocytosis of tumour cells by dendritic cells; type: cell-based, BALB/c mice; settings: within a few hours after treatment
Experimental: BM cells were flushed from the tibias and femurs of BALB/c mice with culture medium composed of RPMI 1640 medium (Invitrogen Life Technologies) supplemented with 10% heat-inactivated FBS (Invitrogen), sodium pyruvate, 50 µM 2-ME (Sigma), 10 mM HEPES (pH 7.4), and penicillin/streptomycin (Invitrogen). After one centrifugation, BM cells were resuspended in Tris-ammonium chloride for 2 min to lyse RBC. After one more centrifugation, BM cells (1 x 10^6 cells/ml) were cultured in medium supplemented with 100 ng/ml recombinant mouse FLT3 ligand (R&D systems) in 6-well plates (Costar Corning). After 7 days, the non-adherent and loosely adherent cells were harvested with Versene, washed and transferred in 12-well plates (1.5 x 10^6 cells/plate) for cocultures with tumour cells.
In 12-well plates, 25 x 10^6 adherent CT26 cells were labelled with Celltracker Green (Calbiochem) and then incubated with drugs. In some experiments viable CT26 were coated with 2µg/10^6 cells of chicken anti-CRT antibody (ABR affinity bioreagents) or an isotype control for 30 min prior to washing and feeding to dendritic cells Cs. Alternatively CT26 cells were coated with 2µg/10^6 cells of rCRT on ice for 30 min and washed twice prior to addition to dendritic cells. […] Phagocytosis was assessed by FACS analysis of double positive cells. […]

ERP57 [1] = test: Biotinylated surface proteins, 2D electrophoresis and mass spectroscopy; settings: short-term (4 h) treatment
CRT and/or ERp57 = test: Immunofluorescence staining of unfixed human tumour cell lines; type: cell-based; settings: variety of human tumour cell lines
CRT [2] = test: Biotinylated surface proteins, 2D electrophoresis and mass spectroscopy; settings: short-term (4 h) treatment
CT26 tumours [3] = test: Intratumoural treatment of established CT26 tumours, immunocompetent mice
Experimental: (§2) All animals were maintained in specific pathogen-free conditions and all experiments followed the FELASA guidelines. […] Tumours were evaluated weekly, using a caliper. In a series of experiments, BALB/c (wild type or nu/nu) carrying palpable CT26 tumours (implanted 14 days before for wild type or 7 days before for nu/nu mice by injection of 10^6 tumour cells) received a single intratumoural injection of 100 µM PBS containing the same concentration of anti-cancer agents and PP1/GADD34 inhibitors as those used in vitro, as well as rCRT (15 µg).

ERp57 [4] = test: Flow cytometric detection of surface ERp57; type: cell-based
CRT [5] = test: Fluorescence detection of cell surface CRT on CT26 cells; type: cell-based, murine
Experimental: CT26 cells were cultured at 37°C under 5% CO2 in RPMI 1640 medium supplemented with 10% FCS, penicillin, streptomycin, 1 mM pyruvate and 10 mM HEPES in the presence of doxorubicin (DX; 24 h, 25 µM), mitoxantrone (Mitox; 24h, 1 µM, Sigma), idarubicin (24h, 1 µM, Aventis, France), mitomycin C (30 µM, 48 h; Sanofi-Synthelabo, France), and/or zVAD-fmk (50 µM, 24 h; Bachem), tunicamycin (24h, 65 µM), thapsigargin (24h, 30µM), brefeldin A (24h, 50 µM, Sigma), etoposide (48h, 25µM, Tava classics), MG132 (48h, 10 µM), ALLN (48h, […]), betulinic acid (24h, 10 µM), Hoechst 33343 (24h, 0,2µM), camptothecine (24h, 15 µM), lactacystin (48h, 60 µM), BAY 11-8072 (24h, 30µM), staurosporine (24h, 1.5 µM), bafilomycin A1 (48h, 300 nM), arsenic trioxide (24h, 30µM), C2-ceramide (C2-C; 24h, 60 µM,), calyculin A (48h, 30nM), or tautomycin (48h, nM, Sigma) and/or salubrinal (48h, µM, Calbiochem).
(§1) CT26 cells (on a glass slide or in 12-well plates) were first washed with FACS buffer (1× PBS, 5% fetus bovine serum, and 0.1% sodium azide) and then incubated with rabbit anti-mouse CRT antibody (1:100, Stressgen) in FACS buffer at 4 °C for 30 min. Cells reacted with anti-rabbit IgG (H+L) Alexa fluor 488-conjugates (1:500) in FACS buffer at 4 °C for 30 min. After washing three times with FACS buffer, surface CRT was detected by cytofluorometric analysis on a FACS Vantage. In some experiments, cells were fixed with 4% paraformaldehyde, counterstained with Hoechst (2µM; Sigma), followed by fluorescence microscopic assessment with a Leica IRE2 microscope equipped with a DC300F camera.

CT26 tumours [6] = test: Intratumoural treatment of established CT26 tumours, nu/nu mice
Experimental: as §2

[7] = test system: CRT, KDEL receptor and ERp57; test: Double immunofluorescence staining of CRT, KDEL receptor and ERp57; type: cell-based; settings: HeLa cells, 1 µM, 2h
HeLa, A549, HCT116 = test: CRT exposure on human tumour cell lines; type: cell-based
MCA205, B16F10, J558 = test: CRT exposure on murine tumour cell lines; type: cell-based
CRT [8] = test: Cell surface CRT on enucleated CT26 cells (cytoplasts); type: cell-based, murine
Experimental: as §1
Trypsinized CT26 cells were enucleated as described in the publication of Andreau, K. et al. Contagious apoptosis facilitated by the HIV-1 envelope. Fusion-induced cell-to-cell transmission of a lethal signal. J. Cell Sci. 117, 5643-53 (2004). Briefly, cells were treated in 2 ml of complete RPMI medium containing cytochalasin B (10µg/ml; Sigma) and DNase I (80U/ml; Sigma). […] Then the cell surface CRT was detected (see materials and methods) and the viability was determined by with propidium iodine staining (2µg/ml, Sigma) for 5 min followed by cytofluorometric analysis. […] Phagocytosis was assessed by FACS analysis of double positive cells.

| SMILES | immunogenic apoptosis / immunogenic cell death (protection against tumour growth) (CT26 tumour cells) | phagocytosis of treated tumour cells by DC (CT26 cells) | surface exposure of ERP57 (ERP57 [1]) | exposure of CRT and/or ERp57 on the cell surface (CRT and/or ERp57) | induction of surface CRT (factor) (CRT [2]; doxorubicin alone) | induction of surface CRT (factor) (CRT [2]; doxorubicin combined with Z-VAD-fmk) | therapeutic effect of single agent (CT26 tumours [3]; mouse, in vivo) | tumour response (CT26 tumours [3]; mouse, in vivo) | surface exposure of ERp57 (ERp57 [4]) | immunogenic cell death (CT26 tumour cells; mouse, in vivo) | immunogenic potential of cells succumbing to etoposide (CT26 tumour cells; mouse, in vivo) | CRT exposure (CRT [5]) | therapeutic effect of single agent (CT26 tumours [6]; mouse, in vivo) | therapeutic effect of single agent (CT26 tumours [3]; single intratumoural injection, 14-day-old tumours) | surface appearance of CRT, KDEL receptor and ERp57 [7] | CRT exposure (HeLa, A549, HCT116) | CRT exposure (MCA205, B16F10, J558) | CRT exposure triggered by PP1 or GADD34 depletion (CRT [5]; siRNA knock-down, then mitoxantrone 2 h) | therapeutic effect of single agent (CT26 tumours [6]; single intratumoural injection) | time to CRT exposure in enucleated cells (cytoplasts) (CRT [8]) [h] |
| --- | --- | --- | --- | --- | --- | --- | --- | --- | --- | --- | --- | --- | --- | --- | --- | --- | --- | --- | --- | --- |
| COc1cccc2c1C(=O)c1c(O)c3c(c(O)c1C2=O)C[C@@](O)(C(=O)CO)C[C@@H]3O[C@H]1C[C@H](N)[C@H](O)[C@H](C)O1 [doxorubicin] | elicited immunogenic cell death | acquired the property to be phagocytosed by DC quickly | specifically induced | Very similar results | 6 | 1.8 | – | – | – | – | – | – | – | – | – | – | – | – | – | – |
| CO[C@H]([C@H](O)CC(=O)[C@@H](C)[C@@H](O)CC[C@@H](C)[C@@H]1O[C@]2(CC[C@@H](C)[C@H](CC[C@H](C)C(C)=O)O2)CC[C@@H]1C)[C@H](OC(=O)C[C@@H](O)C1=C(C)C(=O)OC1=O)C(C)C [tautomycin] | – | – | – | – | – | – | no major therapeutic effect | stable disease or complete tumour regression | stimulates the surface exposure or ERp57 | not sufficient to induce immunogenic cell death | greatly enhanced | efficiently induced; also recorded: greatly enhanced | no major therapeutic effect | – | – | – | – | – | – | – |
| O=C1c2c(O)ccc(O)c2C(=O)c2c(NCCNCCO)ccc(NCCNCCO)c21 [mitoxantrone] | elicited immunogenic cell death | acquired the property to be phagocytosed by DC quickly | – | – | – | – | – | – | – | – | – | – | – | permanent regression in some but not all cases | appear together on the surface | induced CRT exposure | induced CRT exposure | not further enhanced | no cure | ≤ 1 |

From patent publication EP1961762A1, “Inhibitors of protein phosphatase 1/GADD34, preparation and uses thereof” (Institut Gustave Roussy, priority 2007, dated 2008)
